The values that follow are results of earlier work, collected in patent US20120294937A1, “NEW PHARMACEUTICAL DOSAGE FORM FOR THE TREATMENT OF GASTRIC ACID-RELATED DISORDERS” (NOVARTIS AG, priority 2009, published 2012).

For the data set, the system named is stomach acid pH.

For the compound `NC(N)=Nc1nc(CSCCC(N)=NS(N)(=O)=O)cs1` [famotidine], the “time stomach acid controlled at pH>4” value (Day 1, clinical setting) is reported as 54 % of the day. The “percentage of time controlling stomach acid” value (Day 8, steady state for omeprazole reached, clinical setting) is recorded as 48 % of the day.
